Paper PMC9458062, “^131I-C19 Iodide Radioisotope and Synthetic I-C19 Compounds as K-Ras4B–PDE6δ Inhibitors: A Novel Approach against Colorectal Cancer—Biological Characterization, Biokinetics and Dosimetry” (Molecules, 2022)
Blank lines part the entries; values can stand above or below the compound they belong to.

Tests used:
[1] = system: bone marrow polychromatic erythrocytes; test: Genotoxicity, bone marrow micronucleus assay; conditions: 24 h, per 2000 PCEs (vehicle 7 ± 2)
Method: The test compounds were intraperitoneally administered once, as a solution, at a concentration of 15 mg/kg of 5-fluorouracil (5-Fu) and 30 mg/kg of C19 or I-C19. Bone marrow cells were obtained 24 h after treatment and stained with Giemsa-Wright (Diff-Quick; Harleco; Gibbstown, NJ, USA). Two-thousand polychromatic erythrocytes were counted per animal using an optical microscope at 100× magnification to determine the number of micronucleated polychromatic erythrocytes.

colon adenocarcinoma = test: AOM/DSS colorectal cancer mouse model; assay type: in vivo, C57BL/6 male mice; conditions: AOM/DSS mice
Method: Aberrant glands formed these lesions, and the cells that formed them presented atypical nuclei with evident nucleoli and loss of mucus production. The percentage of mice colorectal tissue affected with these lesions was considered as the percentage of colon adenocarcinoma in mice.
Six-week-old C57BL/6 male mice, with a weight of approximately 20 g, were intraperitoneally injected with a single dose of azoxymethane (AOM) (10 mg/kg). […] For the control group, the same procedure was performed with normal intraperitoneal saline and pure drinking water instead of the AOM/DSS treatment.
Paraffin sections of colon tumor samples were deparaffinized in xylene and rehydrated in a series of graded alcohols. Antigens were retrieved in 0.01 M sodium citrate buffer and 0.1M EDTA-Tris buffer (Novocastra™ Epitope Retrieval Solutions, cat. RE7113; Leica Biosystems). Samples were incubated in 0.9% H2O2 for 5 min, followed by 1 h of blocking in 1% BSA in PBS. […] Then, the samples were developed with the Betazoid DAB Chromogen Kit (Cat. BDB2004H; BIOCARE Medical), counter-stained with hematoxylin and mounted with synthetic resin solution (Entallan.107960; Merck).

CCD-18Co = system: CCD-18Co; set-up: method as in PMID 30382908; conditions: CCD-18Co healthy cell line; cited from earlier work
micronuclei = conditions: mice, 30 mg/kg; cited from earlier work
[2] = system: CMT93 (mice colorectal cancer) allograft tumors; set-up: method as in PMID 19569179; conditions: 30 min post-injection; cited from earlier work
[3] = Biodistribution and biokinetic models; assay type: in vivo, Nu/Nu mice with LoVo xenograft tumors
Method: ^131I-C19 was intraperitoneally injected (200 µL, 5 MBq (135 µCi/mice)) into nu/nu mice. The mice (n = 3) were euthanized at 0.5, 1, 3, 5, 24, 48, 92 and 144 h post-injection. Whole tumor, lung, liver, pancreas, spleen, kidney, large intestine (colon) and blood were rinsed and placed into pre-weighed plastic test tubes. The activity was determined in a NaI(Tl) detector (Canberra) along with three 0.5 mL aliquots of the diluted standard, representing 100% of the injected activity and used for radioactive decay correction. Mean activity values in each organ were correlated with those of the standard (representing the initial injected activity) to obtain the percentage of injected dose (% ID) at different times. The % ID values of each organ or tumor were input into the Olinda/EXM 2.0 software and adjusted to exponential functions (first-order kinetics) to obtain biokinetic models corrected by radioactive decay ( qh(t) ) (Equation (2)), which corresponded to the I-C19 compound. Likewise, the Ah(t) functions, which corresponded to the ^131I-C19 biokinetic models, were obtained considering λeff as =λB+λR , where the biological constant is represented by λB and the ^131I − radioactive decay constant is λR (Equation (3)). (2) qh(t)=Ah(t)×e^λR = Be^(−λBb)t+Ce^(−λBc)t+De^(−λBd)t (3) Ah(t)=Be^−(λBb+λR)t+Ce^−(λBc+λR)t+De^−(λBd+λR)t

γ-H2AX foci in SW620 = test: DNA double-stranded breaks, γ-H2AX foci assay; assay type: cell-based, human; conditions: SW620, 6.8 µM, 3 h
Method: (§1) For the evaluation of DNA double-stranded breaks (DSBs), the phosphorylation of the Ser-139 gamma histone variant H2AX (γH2AX) was used as a biomarker. Cells, diluted to a suitable concentration, were grown on a glass slide after exposure to I-C19 or ^131I-labeled C19 (1.8, 6.8 and 8.8 µM for the cell lines LoVo, SW620 and HCT116, respectively) for 3 h. The anti-phospho-histone H2A.X (ser139) (1:200; CST, Boston, MA, USA) antibody was used as the primary antibody. The Alexa-488-conjugated anti-rabbit IgG was used for the visualization of γH2AX. […] To quantify the foci, clear and easily distinguishable dots were counted. At least 30 cells were imaged per slide, and the average number of foci per cell was calculated.

γ-H2AX foci in HCT116 = test: DNA double-stranded breaks, γ-H2AX foci assay; assay type: cell-based, human
Method: as §1

γ-H2AX foci in LoVo = test: DNA double-stranded breaks, γ-H2AX foci assay; assay type: cell-based, human; conditions: 1.8 µM, 3 h
Method: as §1

SW620 [4] = test: XTT cell viability; assay type: cell-based, human; conditions: SW620, 6.8 µM, 1.44 Bq/cell, 72 h
Method: (§2) The human CRC cell lines, LoVo (ATCC® CCL-229™), SW620 (ATCC® CCL-227™) and HCT116 (ATCC® CCL-247™), were acquired from ATCC and cultured in F12K medium (Kaighn’s Modification of Ham’s F-12 Medium), DMEM-F12 medium and RPMI-1640 medium, (ATCC, Manassas, VA, USA), respectively. The human colorectal fibroblast CCD-18Co line was grown in an EMEM medium (ATCC, Manassas, VA, USA). The media were added with 10% fetal bovine serum and a 1% penicillin/streptomycin solution. Cells were incubated at 37 °C in a humidified atmosphere of 5% CO2.
(§3) The CCD-18Co, SW620, LoVo and HCT116 cell lines were plated in 96-well plates at a density of 10^4 cells/well for 24 h to allow for adherence. Then, the cells were treated with the I-C19 compound for 72 h. Cell viability was evaluated by the XTT (2,3-bis[2-methoxy-4-nitro-5-sulfophenyl]-2H-tetrazolium-5-carboxyanilide) assay kit (Roche, Germany), based on to the manufacturer’s instructions. The required I-C19 concentration, which produced fifty percent cell death at 72 h, was calculated by fitting a model with Prism software (GraphPad Software, San Diego, CA, USA).
(§4) For the assessment of dual therapy, beta radiation emission from ^131I-labeled C19 was also evaluated. The mitochondrial dehydrogenase activity in living HCT116, LoVo and SW620 cells was considered to measure the contribution of ^131I beta radiation to cell death, and the cell viability analysis was carried out after exposure to concentrations ten times lower than the IC50 obtained for each cancer cell line (8.8, 1.8 and 6.8 µM, respectively). Cell viability was evaluated by the XTT (2,3-bis[2-methoxy-4-nitro-5-sulfophenyl]-2H-tetrazolium-5-carboxyanilide) assay kit (Roche, Germany), based on to the manufacturer’s instructions. Briefly, colorectal cancer cell lines at a density of 10^4 cells/well were seeded in 96-well microtiter plates. The viability after treatment was measured 72 h (incubation in 5% CO2, 85% humidity and 37 °C). The absorbance in each well was recorded in a microplate reader (Epoch; BioTek Instruments; Winooski, VT, USA) at 450 nm. […]

LoVo [5] = test: XTT cell viability; assay type: cell-based, human; conditions: 1.8 µM, 1.44 Bq/cell, 72 h
Method: as §2, §3, §4

HCT116 [6] = test: XTT cell viability; assay type: cell-based, human; conditions: HCT116, 8.8 µM, 1.44 Bq/cell, 72 h
Method: as §2, §3, §4

SW620 [7] = test: Cell uptake, internalization and radiation absorbed dose to the nucleus; assay type: cell-based, human; conditions: for total uptake in the cell membrane (of the total radioactivity): 1.44 Bq/cell
Method: (§5) The HCT116, LoVo and SW620 cells were seeded in 48-well tissue culture plates at a density of 10^5 cells/well. After 24 h, the cells were exposed to 1.44 Bq/cell of ^131I-C19 (200 μL) at 37 °C for 1, 3 and 5 h. After treatment, two washes (1 mL of ice-cold PBS) were performed. For the calculation of the cell uptake, the cells in each well were treated (at room temperature for 5 min) with 500 μL of glycine buffer (50 mM, pH 2.8). Then, this fraction was removed, and the radioactivity was measured in a NaI (Tl) detector (BCL, San Rafael CA, USA). To evaluate the ^131I-C19 internalization, the cells were incubated with 1 mL of NaOH 0.3 M (at room temperature for 10 min). Once more, the radioactivity was measured in a NaI (Tl) detector (BCL, San Rafael CA, USA). A 100% standard solution (200 μL) of ^131I-C19 was also measured (n = 5). The uptake (%) (plasmatic membrane) and internalization (%) (cytoplasm) were used to obtain the radiation absorbed dose.
(§6) For estimation of the radiation absorbed doses to the HCT116, LoVo and SW620 cells’ nuclei, Equation (1) was used:(1) DN←source=(NCS×DFN←CS)+(NCy×DFN←Cy) where DN←source denotes the mean absorbed dose to the nucleus from source regions (i.e., cell surface—CS; cytoplasm—Cy); NCS and NCy are the total nuclear transformations occurring in the membrane and cytoplasm, respectively, calculated from the mathematical integration (from t = 0 to t = ∞) of the activity estimated in the internalization and cell uptake experiments; DFN←CS and DFN←Cy represent the dose factors specific for [^131I] from the cell surface (plasmatic membrane) and cytoplasm regions to the nucleus configuration. The dose factor geometries were obtained from S values (HCT116 cell radius = 10 μm, nucleus radius = 5 μm; LoVo and SW620 cell radius = 10 μm, nucleus radius = 6 μm).

LoVo [8] = test: as above; assay type: cell-based, human; conditions: for total uptake in the cell membrane (of the total radioactivity): 1.44 Bq/cell
Method: as §5, §6

HCT116 [9] = test: as above; assay type: cell-based, human; conditions: for total uptake in the cell membrane (of the total radioactivity): 1.44 Bq/cell
Method: as §5, §6

[10] = system: colorectal cancer cell lines; test: Cell uptake, initial; assay type: cell-based, human; conditions: before the 3 h increase
Method: as §5

SMILES: O=c1[nH]cc(F)c(=O)[nH]1 [5-Fu, 5-fluorouracil, reference compound]
frequency of micronucleated polychromatic erythrocytes (MNPCEs) ([1]; 15 mg/kg single intraperitoneal injection): 27 ± 4

SMILES: COc1ccc(CN[C@@H](C)C(=O)Nc2cc(Cl)ccc2Cl)cc1OC [C19, (2S)-N-(2,5-dichlorophenyl)-2-[(3,4-dimethoxyphenyl)methylamine]propanamide]
frequency of micronucleated polychromatic erythrocytes (MNPCEs) ([1]; 30 mg/kg single intraperitoneal injection, not significant): 12 ± 1
percentage of colon adenocarcinoma (colon adenocarcinoma; 30 mg/kg intraperitoneally every day for 12 days (vehicle 7–8%)): 5–6%
CEA marker, IHC (colon adenocarcinoma; 30 mg/kg, 12 days (vehicle 65%)): 12.5 % of neoplastic tissue
IC50 (CCD-18Co): 60.8 µM

SMILES: O=P1(N(CCCl)CCCl)NCCCO1 (stereo not drawn) [CP, Cyclophosphamide]
induction of micronuclei (micronuclei): strong

SMILES: [125I-].[Na+] [Na[^125I]]
activity in tumor tissue [2]: 9.1 % ID/g

activity concentration in the tumor tissue ([3]; LoVo tumor, after 1 h): 4.4 % ID/g
route of excretion ([3]; biodistribution, 5 MBq intraperitoneal): renal and hepatobiliary excretion
remaining fraction of activity cleared slowly from the blood ([3]; intraperitoneal, fitted biexponential model): 10.2%
SMILES: COc1ccc(CNC(C)C(=O)Nc2cc([131I])ccc2[131I])cc1OC (stereo not drawn) [^131I-C19]
γ-H2AX foci increase, ^131I-C19 vs. I-C19 at the same concentration (γ-H2AX foci in SW620): 2.3 times
γ-H2AX foci, ^131I-C19 vs. I-C19 at the same concentration (γ-H2AX foci in HCT116; HCT116, 8.8 µM, 3 h): almost three times more γ-H2AX foci
level of DSBs relative to the control (γ-H2AX foci in HCT116; HCT116, exposure to ^131I beta radiation): six times higher than the control
γ-H2AX foci increase, ^131I-C19 vs. I-C19 at the same concentration (γ-H2AX foci in LoVo): 2.1 times
cell viability compared to unlabeled I-C19 at the same concentration (SW620 [4]): viability significantly decreased
cell viability compared to unlabeled I-C19 at the same concentration (LoVo [5]): viability significantly decreased
cell viability compared to unlabeled I-C19 at the same concentration (HCT116 [6]): viability significantly decreased
internalized activity into the cytoplasm (SW620 [7]; SW620, 3 h): 2.66 ± 0.30%
total uptake in the cell membrane (of the total radioactivity) (SW620 [7]; SW620, 3 h): 45.6 ± 6.7%
internalized activity into the cytoplasm (SW620 [7]; SW620, 5 h): 1.44 ± 0.14%
total uptake in the cell membrane (of the total radioactivity) (SW620 [7]; SW620, 5 h): 25.62 ± 4.71%
internalized activity into the cytoplasm (LoVo [8]; 3 h): 2.90 ± 0.82%
total uptake in the cell membrane (of the total radioactivity) (LoVo [8]; 3 h): 40.2 ± 6.4%
internalized activity into the cytoplasm (LoVo [8]; 5 h): 0.30 ± 0.04%
total uptake in the cell membrane (of the total radioactivity) (LoVo [8]; 5 h): 1.80 ± 0.18%
internalized activity into the cytoplasm (HCT116 [9]; HCT116, 3 h): 2.45 ± 0.21%
total uptake in the cell membrane (of the total radioactivity) (HCT116 [9]; HCT116, 3 h): 43.6 ± 4.7%
internalized activity into the cytoplasm (HCT116 [9]; HCT116, 5 h): 1.63 ± 0.05%
total uptake in the cell membrane (of the total radioactivity) (HCT116 [9]; HCT116, 5 h): 1.63 ± 0.34%
initial uptake [10]: 3.28–3.6%
